Results taken from patent publication US20180016593A1, “HERBICIDE-RESISTANT SUNFLOWER PLANTS, POLYNUCLEOTIDES ENCODING HERBICIDE-RESISTANT ACETOHYDROXYACID SYNTHASE LARGE SUBUNIT PROTEINS, AND METHODS OF USE” (priority 2005, published 2018).
Several values for one entry are separate records, joined by “and”; a condition that tells them apart may be missing. Equal entries are not always repeated. Where two headings read alike, the source gives them in different places.

Columns and labels:
[1] = test system: sunflower lines carrying the A205V mutation; type: in vivo, Helianthus annuus; details: 14 DAT; for biomass accumulation, Dif with Control / plant height, Dif with Control / root dry weight, Dif with Control: A205V mean; for biomass accumulation, Mean / root dry weight, Mean / plant height, Mean: six A205V genotypes; for Phytotoxicity Index, Mean: three A205V genotypes
Experimental: A greenhouse study was conducted to quantify and contrast the imazapir sensivity of the mutants A122T and A205V in different genetic backgrounds at the whole plant level in sunflower. Seeds of the different sunflower lines that were used in this study were obtained under field conditions.
Seeds were sown in Petri dishes and, after germination, plantlets were transplanted to pots of 10 cm of diameter in a potting media consisting of equal parts of vermiculite, soil and sand. Plants were grown in a greenhouse under natural light conditions supplemented with 400 W sodium halide lamps to provide a 16 hrs daylength. Day/night temperatures were 25 and 20° C., respectively. At the V2 stage 10 plants of each genotype were randomly assigned to each treatment consisting of […] imazapir doses (0, 40, 80, 160, 240, 320, 400 and 480 g ai/ha), and a zero-time biomass determination. Experiment was arranged as a randomized block design with a full factorial (sunflower line×treatment) arrangement of treatments and 10 replications.
On the day of herbicide application ten plants of each genotype were cut at the cotyledonal node and dried at 60° C. for 48 hrs zero-time for dried weight determination.
Height was determined as the distance between the cotyledonal node and the apex of each plant. For root biomass determination, each plant was taken from the pot and the potting media was washed out from the roots. Above ground biomass data from each line were converted to biomass accumulation after application by subtracting the appropriate average zero-time biomass from each sample. Dry biomass data were converted to percentages of the untreated control plants within each line to allow direct comparisons between groups. […]

[2] = test system: sunflower TH9 (Hybrid, A205V); type: in vivo, Helianthus annuus; details: 14 DAT
[3] = test system: conventional non-Clearfield variety; assay: Greenhouse spray injury rating (Example 5); type: in vivo; details: in vivo
Excerpt: (§1) Methods: Sunflower lines S4897, Clearfield® sunflower varieties A, B, C and a conventional non-Clearfield variety were sprayed with three rates of imazamox (Raptor™), 100, 200 and 300 gm ai/ha plus 0.5% Sun It II and two rates of imazapyr (Arsenal™) 160 and 360 gm ai/ha plus 0.5% Sun It II when the plants were at the two to three leaf stage. Ratings were taken at 14 days after application (DAT) for injury. Injury was rated on a scale from 0 to 9 where […] to 9=dead plant. Twelve plants were sprayed per herbicide/rate treatment. Statistical analysis was conducted with STATGRAPHICS Plus 5.0 by using ANOVA and LSD procedures.
(§2) Results: After plants were sprayed, it was realized that a height difference between S4897 and other sunflower varieties would have impacted the actual herbicide dose that was delivered. The spray boom height had been calibrated against S4897 and since the other varieties were taller and closer to the boom they would have received a greater dose of herbicide. Rates were recalibrated for the other varieties to determine the approximate dose they would have received. Assessments were made as presented in Table 2 since it was not possible to make a direct rate comparison due to the effect of the height. For example injury scores were compare for S4897 treated imazamox rate 100 gm ai/ha to the other varieties treated at 75 gm ai/ha. The treatment dose of 300 gm ai/ha for line S4897 was equivalent to the treatment of 200 gm ai/ha for the other varieties, which approximately was 300 gm ai/ha.

[4] = test system: Clearfield sunflower variety B; assay: Greenhouse spray injury rating (Example 5); type: in vivo; details: in vivo
Excerpt: as §1, §2

[5] = test system: Clearfield sunflower variety A; assay: Greenhouse spray injury rating (Example 5); type: in vivo; details: in vivo
Excerpt: as §1, §2

[6] = test system: Clearfield sunflower variety C; assay: Greenhouse spray injury rating (Example 5); type: in vivo; details: in vivo
Excerpt: as §1, §2

## CC(C)C1(C)N=C(c2ncccc2C(=O)O)NC1=O (centres unmarked) [imazapyr]
[1]; 0.5x (40 g ai/ha)
  biomass accumulation, Dif with Control: 5.5 % of untreated plots
  plant height, Dif with Control: 5.6 % of untreated plots
  root dry weight, Dif with Control: 12.8 % of untreated plots
  biomass accumulation, Mean: 94.5 % of untreated plots
  root dry weight, Mean: 87.2 % of untreated plots
[1]; 1x (80 g ai/ha)
  biomass accumulation, Dif with Control: 17.8 % of untreated plots
  plant height, Dif with Control: 10.8 % of untreated plots
  root dry weight, Dif with Control: 29.2 % of untreated plots
  biomass accumulation, Mean: 82.2 % of untreated plots
  root dry weight, Mean: 70.8 % of untreated plots
[1]; 2x (160 g ai/ha)
  biomass accumulation, Dif with Control: 38.4 % of untreated plots
  plant height, Dif with Control: 30.8 % of untreated plots
  root dry weight, Dif with Control: 49.4 % of untreated plots
  biomass accumulation, Mean: 61.6 % of untreated plots
  plant height, Mean: 69.2 % of untreated plots
  root dry weight, Mean: 50.6 % of untreated plots
  Phytotoxicity Index, Mean: 2.2
[1]; 3x (240 g ai/ha)
  biomass accumulation, Dif with Control: 52.4 % of untreated plots
  plant height, Dif with Control: 49.6 % of untreated plots
  root dry weight, Dif with Control: 60.8 % of untreated plots
  biomass accumulation, Mean: 47.6 % of untreated plots
  plant height, Mean: 50.4 % of untreated plots
  root dry weight, Mean: 39.2 % of untreated plots
  Phytotoxicity Index, Mean: 5.1
[1]; 4x (320 g ai/ha)
  biomass accumulation, Dif with Control: 64.6 % of untreated plots
  plant height, Dif with Control: 66.3 % of untreated plots
  root dry weight, Dif with Control: 68.9 % of untreated plots
  biomass accumulation, Mean: 35.4 % of untreated plots
  plant height, Mean: 33.7 % of untreated plots
  root dry weight, Mean: 31.1 % of untreated plots
  Phytotoxicity Index, Mean: 7.4
[1]; 5x (400 g ai/ha)
  biomass accumulation, Dif with Control: 67.6 % of untreated plots
  plant height, Dif with Control: 68.0 % of untreated plots
  root dry weight, Dif with Control: 69.3 % of untreated plots
  biomass accumulation, Mean: 32.4 % of untreated plots
  plant height, Mean: 32.0 % of untreated plots
  root dry weight, Mean: 30.7 % of untreated plots
  Phytotoxicity Index, Mean: 8.2
[1]; 6x (480 g ai/ha)
  biomass accumulation, Dif with Control: 70.0 % of untreated plots
  root dry weight, Dif with Control: 75.6 % of untreated plots
  biomass accumulation, Mean: 30.0 % of untreated plots
  plant height, Mean: 30.2 % of untreated plots
  root dry weight, Mean: 24.4 % of untreated plots
  Phytotoxicity Index, Mean: 8.2
[1]; 6x (480 g ai/ha), listed as imazapir
  plant height, Dif with Control: 68.9 % of untreated plots and 69.8 % of untreated plots
[2]; 0.5x (40 g ai/ha)
  Phytotoxicity Index: 0
  biomass accumulation (above ground dry weight): 91.7 % of untreated plots
  plant height: 100.0 % of untreated plots
  root dry weight: 81.5 % of untreated plots
[2]; 1x (80 g ai/ha)
  Phytotoxicity Index: 0
  biomass accumulation (above ground dry weight): 81.7 % of untreated plots
  plant height: 100.0 % of untreated plots
  root dry weight: 84.9 % of untreated plots
[2]; 2x (160 g ai/ha)
  Phytotoxicity Index: 1.6
  biomass accumulation (above ground dry weight): 54.7 % of untreated plots
  plant height: 78.9 % of untreated plots
  root dry weight: 58.8 % of untreated plots
[2]; 3x (240 g ai/ha)
  Phytotoxicity Index: 5.1
  biomass accumulation (above ground dry weight): 35.7 % of untreated plots
  plant height: 50.0 % of untreated plots
  root dry weight: 34.1 % of untreated plots
[2]; 4x (320 g ai/ha)
  Phytotoxicity Index: 8.4
  biomass accumulation (above ground dry weight): 25.3 % of untreated plots
  plant height: 38.1 % of untreated plots
  root dry weight: 27.3 % of untreated plots
[2]; 5x (400 g ai/ha)
  Phytotoxicity Index: 8.9
  biomass accumulation (above ground dry weight): 19.8 % of untreated plots
  plant height: 31.8 % of untreated plots
  root dry weight: 29.9 % of untreated plots
[2]; 6x (480 g ai/ha)
  Phytotoxicity Index: 8.9
  biomass accumulation (above ground dry weight): 19.5 % of untreated plots
  plant height: 34.7 % of untreated plots
  root dry weight: 22.1 % of untreated plots
[3]
  Injury (scale 0 to 9): 8.2 days
[4]
  Injury (scale 0 to 9): 4.3 b
[5]
  Injury (scale 0 to 9): 5.0 c
[6]
  Injury (scale 0 to 9): 4.9 c
